Our source for the IC50 values is patent publication US8658646B2, “Pyrrolopyrazine kinase inhibitors” (Hoffmann-LaRoche Inc., priority 2011, dated 2014).

The target of test [1] is T1, JAK3: Recombinant human kinase domain (Homo sapiens, UniProt P52333).
T1 construct: JAK3: Recombinant human kinase domain from Millipore (Cat #14-629) or prepared; purchased Millipore 14-629
As to the kind of experiment: Determination of IC50 of Janus Kinase (JAK) inhibition, radioactive end-point 33P-ATP assay, JAK3. The conditions noted are these: ATP 1.5 uM, peptide 50 uM, 20 minutes, read-out: JAK3-INHIB-DR/v1~NO ADDITIVE~Enzyme_Conc = 100. The format is biochemical.

For test [2], the target named is T2, recombinant human SYK360-635 (Homo sapiens, UniProt P43405).
T2 construct: made in house
Briefly: Determination of IC50 of Spleen Tyrosine Kinase (SYK) inhibition, 33P ATP filtration assay. It counts as biochemical. The conditions noted are these: SYK aa 360-635 0.5 nM; ATP 20 μM, peptide 5 μM, 0.1% BSA; read-out: SYK_ENZYME_FILTRATION/v1, BSA.

Each structure is given as a SMILES string.

T1 sequence (P52333 822-1111 limits assumed): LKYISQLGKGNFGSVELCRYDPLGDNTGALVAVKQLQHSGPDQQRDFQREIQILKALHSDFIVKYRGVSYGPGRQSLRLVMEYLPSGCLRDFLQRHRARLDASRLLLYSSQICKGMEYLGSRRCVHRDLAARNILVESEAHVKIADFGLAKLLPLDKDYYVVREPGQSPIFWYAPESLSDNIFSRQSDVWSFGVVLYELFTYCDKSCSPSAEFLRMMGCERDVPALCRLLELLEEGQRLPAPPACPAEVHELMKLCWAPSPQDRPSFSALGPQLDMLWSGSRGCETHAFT

Consider `Cc1cc(C(C)NC(=O)c2c[nH]c3ncc(-c4nn(C)c5cc(F)ccc45)nc23)no1` (centres unmarked) [Example I-54, 2-(6-Fluoro-1-methyl-1H-indazol-3-yl)-5H-pyrrolo[2,3-b]pyrazine-7-carboxylic acid [1-(5-methyl-isoxazol-3-yl)-ethyl]-amide], for which the IC50 in test [1] was 14 nM; in test [2] it was 77.7 nM.
In the case of `CC(NC(=O)c1c[nH]c2ncc(-c3nn(C)c4cc(F)ccc34)nc12)c1ccno1` (centres unmarked) [Example I-55, 2-(6-Fluoro-1-methyl-1H-indazol-3-yl)-5H-pyrrolo[2,3-b]pyrazine-7-carboxylic acid (1-isoxazol-5-yl-ethyl)-amide], the IC50 in test [1] worked out at 16.9 nM; in test [2], 56.4 nM.
Taken in the same sequence, the figures for `C[C@@H](NC(=O)c1c[nH]c2ncc(-c3nn(C)c4cc(F)ccc34)nc12)C(C)(F)F` [Example I-56, 2-(6-Fluoro-1-methyl-1H-indazol-3-yl)-5H-pyrrolo[2,3-b]pyrazine-7-carboxylic acid ((R)-2,2-difluoro-1-methyl-propyl)-amide] were 11.7 nM and 7.23 nM.
`C[C@@H](NC(=O)c1c[nH]c2ncc(-c3nn(C)c4cc(F)ccc34)nc12)C1=NCCO1` [Example I-60, 2-(6-Fluoro-1-methyl-1H-indazol-3-yl)-5H-pyrrolo[2,3-b]pyrazine-7-carboxylic acid [(R)-1-(4,5-dihydro-oxazol-2-yl)-ethyl]-amide]: the values for the IC50 in test [1] and in test [2] were 27.4 nM and 31.9 nM, respectively.
Taken in the same sequence, the figures for `CC(NC(=O)c1c[nH]c2ncc(-c3nn(C)c4cc(F)ccc34)nc12)[C@H]1C[C@@H](O)C1` (stereo partly drawn) [Example I-73, 2-(6-Fluoro-1-methyl-1H-indazol-3-yl)-5H-pyrrolo[2,3-b]pyrazine-7-carboxylic acid [1-(cis-3-hydroxy-cyclobutyl)-ethyl]-amide] were 19.7 nM and 9.95 nM.
In the same order, the values of `CC(NC(=O)c1c[nH]c2ncc(-c3nn(C)c4cc(F)ccc34)nc12)[C@H]1C[C@H](O)C1` (stereo partly drawn) [Example I-75, 2-(6-Fluoro-1-methyl-1H-indazol-3-yl)-5H-pyrrolo[2,3-b]pyrazine-7-carboxylic acid [1-(trans-3-hydroxy-cyclobutyl)-ethyl]-amide] are 20.6 nM and 9.2 nM.
In the same order, the values of `C[C@@H](NC(=O)c1c[nH]c2ncc(-c3nccc4ccccc34)nc12)C(=O)N1CC(C#N)C1` [Example I-77, 2-Isoquinolin-1-yl-5H-pyrrolo[2,3-b]pyrazine-7-carboxylic acid [(R)-2-(3-cyano-azetidin-1-yl)-1-methyl-2-oxo-ethyl]-amide] are 53.8 nM and greater than 10000 nM.
As to `C[C@@H](NC(=O)c1c[nH]c2ncc(-c3nn(C)c4cc(F)ccc34)nc12)c1ccccn1` [Example I-78, 2-(6-Fluoro-1-methyl-1H-indazol-3-yl)-5H-pyrrolo[2,3-b]pyrazine-7-carboxylic acid ((R)-1-pyridin-2-yl-ethyl)-amide], the values for the IC50 in test [1] and in test [2] were 14.2 nM and 30.2 nM, respectively.
Taken in the same sequence, the figures for `C[C@H](NC(=O)c1c[nH]c2ncc(-c3nn(C)c4cc(Cl)ccc34)nc12)C(C)(C)C#N` [Example I-80, 2-(6-Chloro-1-methyl-1H-indazol-3-yl)-5H-pyrrolo[2,3-b]pyrazine-7-carboxylic acid ((S)-2-cyano-1,2,2-trimethyl-ethyl)-amide] were 12.6 nM and 29.1 nM.
Regarding `CCn1nc(-c2cnc3[nH]cc(C(=O)N[C@H](C)C(=O)N4CC(C#N)C4)c3n2)c2ccc(Cl)cc21` [Example I-85, 2-(6-Chloro-1-ethyl-1H-indazol-3-yl)-5H-pyrrolo[2,3-b]pyrazine-7-carboxylic acid [(R)-2-(3-cyano-azetidin-1-yl)-1-methyl-2-oxo-ethyl]-amide], the IC50 worked out at 0.9 nM in test [1] and 33.4 nM in test [2].
